{"source": "patent US6800481B1", "about": "“Stable macroscopic membranes formed by self-assembly of amphiphilic peptides and uses therefor” (priority 1992, dated 2004)", "key": {"[1]": {"experiment": "Testing of peptides for macroscopic membrane formation (phase-contrast microscope, Congo Red staining)", "format": "physicochemical", "excerpt": "The effect of length and sequence on membrane formation was examined using several peptides (Table 1 and Example 3). […] Very long peptides, e.g., of about 200 amino acids, may encounter problems due to insolubility and intramolecular interactions which destabilize membrane formation. […] The optimal lengths for membrane formation will probably vary with the amino acid composition.\nThe EAK12 and EAK16 tested for membrane formation were acetylated and aminylated at both N- and C-terminal ends. […] The peptides were initially dissolved in water (5 mg/ml) or in 23% acetonitrile (10 mg/ml). A volume of 5-10 microliters of the dissolved peptides were applied to the DMEM medium, PBS or water. The formation of the membrane was first observed under a phase-contrast microscope and then, by the naked eye after staining with Congo Red."}, "PC12 cells": {"tested_on": "PC12 cells", "experiment": "In vitro neurite outgrowth on peptide membranes", "format": "cell-based, rat", "experimental": "The suitability of these materials for supporting in vitro neurite outgrowth was tested by treating biomaterial-attached PC12 cells with nerve growth factor (NGF). This treatment induces PC12 cells to differentiate into sympathetic neurons which can send out long processes called neurites. There was a marked difference in the neurite promoting properties of the two materials tested (EAK16 and RAD16).\nNerve growth factor differentiated PC12 cells have been used extensively in studies of neurite outgrowth. PC12 cells upregulate the number of calcium-dependent and -independent cell adhesion receptors in response to nerve growth factor. Cell attachment and neurite outgrowth from nerve growth factor differentiated PC12 cells was examined on membranes of RAD16 and EAK16 in order to determine whether membranes containing RGD-like sequences would preferentially support these cell activities. Neurite outgrowth on peptide membranes is of interest for potential applications of nerve repair.\nUntreated PC12 cells were introduced to peptide membranes of EAK16 and RAD16 suspended in 85% RMMP1, 10% heat inactivated horse serum, 5 fetal bovine serum. Half of the cells were treated with nerve growth factor (50 ng/ml, NGF) and were supplemented with NGF every 3-4 days for 14 days. […] The neurite outgrowth reached greater than 400 μm in length, approximately 15-20 times the cell body, following the contour of the matrices in a three dimensional network."}, "[2]": {"format": "physicochemical", "conditions": "for [θ2] λ2 195 nm / −[θ1] λ1 218 nm: 8 μM in water", "experimental": "Circular dichroism (CD) spectra were taken on an Aviv Model 60DS spectropolarimeter using program 60HDS for data processing. Because EAK16 contains both positively and negatively charged residues, the peptide itself can serve as a buffer. CD samples were prepared and measured at 25° C., unless otherwise indicated. All reagents were ultrapure and solutions were filtered through a […] before use. Circular dichroism (CD) spectroscopy was used to monitor the stability of the β-sheet structure of EAK16 under various conditions. Dilute […] concentrations. […] A 3 mM stock EAK16 solution was mixed in water to a concentration of 20 μM, allowed to equilibrate, and the CD spectrum measured. The solution was then diluted five times by two-fold serial dilutions to final concentrations of […], 10, 5.0, 2.5, 1.25 and 0.625 μM, allowed to equilibrate and CD spectra taken. […] Temperature. The CD spectra of 8 μM EAK16 at 25, 37, 55, 70 and 90° C. in water were measured. […] EAK16 has a calculated pI Of 6.71. It was assumed that changes of pH would have a great effect on the β-sheet structure, especially when the charged groups are neutralized. […] The 3 mM stock solution of EAK16 was mixed with pH buffers at pH 1.5, 3, 7, and 11 to a final concentration of 10 μM and allowed to equilibrate for 4 hours before taking CD measurements. […] Chemical denaturants. […] The peptide (3 mM stock) was mixed with water or different concentrations of guanidine-HCl or urea and allowed to incubate overnight before taking CD measurements. SDS was added to a peptide solution to a final concentration of 0.1% and incubated for 30 minutes."}, "[3]": {"tested_on": "NGF differentiated PC12 cells, retonic acid-differentiated human neuroblastoma and mouse cerebellum granule cells", "experiment": "Neurite outgrowth on biopolymers, several neuronal cell types", "format": "cell-based", "excerpt": "The invention further relates to the regeneration of nerves with filaments of the membranes of the present invention. Nerve regeneration can be promoted and directed by transplanting filaments of RAD16 along the correct path to their targets. This would be extremely useful for patients with severed peripheral nerves. Such a technology could be refined to help people with spinal cord injuries."}, "[4]": {"tested_on": "nerve growth factor-differentiated rat PC12 cells", "format": "cell-based", "excerpt": "The membranes also appear to be non-cytotoxic. The EAK16 peptide formed macroscopic membranes when added to a tissue culture of nerve growth factor-differentiated rat PC12 cells."}, "physchem": {"experiment": "physchem", "format": "physicochemical", "experimental": "EAK16 peptide stock solutions were prepared at a concentration of approximately 0.57 mM (1 mg/ml) in water. The molecular weight of EAK16 is 1,760. […] The concentration was determined by the ninhydrin methods using internal controls."}}, "note": "“And” between values parts separate entries of the source, which are not always exact repeats. Equal values may be shown once. “Also recorded” adds a separate entry of the source. Read-outs that look alike come from different tables or passages of the source. Residues, ends and D or L forms follow the SMILES beside them.", "data": [{"smiles": "CC(=O)N[C@@H](C)C(=O)N[C@@H](CCC(=O)O)C(=O)N[C@@H](C)C(=O)N[C@@H](CCC(=O)O)C(=O)N[C@@H](C)C(=O)N[C@@H](CCCCN)C(=O)N[C@@H](C)C(=O)N[C@@H](CCCCN)C(=O)N[C@@H](C)C(=O)N[C@@H](CCC(=O)O)C(=O)N[C@@H](C)C(=O)N[C@@H](CCC(=O)O)C(=O)N[C@@H](C)C(=O)N[C@@H](CCCCN)C(=O)N[C@@H](C)C(=O)N[C@@H](CCCCN)C(N)=O", "note": "[EAK16] (Ac-AEAEAKAKAEAEAKAK-NH2)", "values": [{"measurement": "formation of macroscopic membranes", "setting": "[1]; identical conditions, in words", "result": "could undergo self-assembly"}, {"measurement": "membranous structure in Water", "setting": "[1]; water", "result": "−"}, {"measurement": "neurite outgrowth of NGF-treated PC12 cells, in words", "setting": "PC12 cells; NGF-treated PC12 cells on membranes", "result": "little neurite processes; also recorded: little neurite outgrowth"}, {"measurement": "Neurite outgrowth, untreated, 14 days", "setting": "PC12 cells; PC12 cells without NGF, 14 days", "result": "− (no neurite outgrowth)"}, {"measurement": "β-sheet structure on dilution of the peptide", "setting": "[2]; 0.625 to 20 μM in water", "result": "not significantly affected by dilution of the peptide"}, {"measurement": "CD spectra over temperature", "setting": "[2]; 25, 37, 55, 70 and 90° C.", "result": "unaffected over the range of 25-90 °C"}, {"measurement": "Ratio [θ2]/[θ1]", "setting": "[2]; 25 ° C.", "result": 3.9}, {"measurement": "[θ2] λ2 195 nm", "setting": "[2]; 25 ° C.", "result": "62 X1,000"}, {"measurement": "−[θ1] λ1 218 nm", "setting": "[2]; 25 ° C.", "result": "16 X1,000"}, {"measurement": "Ratio [θ2]/[θ1]", "setting": "[2]; 37 ° C.", "result": 4.0}, {"measurement": "[θ2] λ2 195 nm", "setting": "[2]; 37 ° C.", "result": "60 X1,000"}, {"measurement": "−[θ1] λ1 218 nm", "setting": "[2]; 37 ° C.", "result": "15 X1,000"}, {"measurement": "Ratio [θ2]/[θ1]", "setting": "[2]; 55 ° C.", "result": 3.9}, {"measurement": "[θ2] λ2 195 nm", "setting": "[2]; 55 ° C.", "result": "55 X1,000"}, {"measurement": "−[θ1] λ1 218 nm", "setting": "[2]; 55 ° C.", "result": "14 X1,000"}, {"measurement": "Ratio [θ2]/[θ1]", "setting": "[2]; 70 ° C.", "result": 4.1}, {"measurement": "[θ2] λ2 195 nm", "setting": "[2]; 70 ° C.", "result": "54 X1,000"}, {"measurement": "−[θ1] λ1 218 nm", "setting": "[2]; 70 ° C.", "result": "13 X1,000"}, {"measurement": "Ratio [θ2]/[θ1]", "setting": "[2]; 90 ° C.", "result": 4.0}, {"measurement": "[θ2] λ2 195 nm", "setting": "[2]; 90 ° C.", "result": "50 X1,000"}, {"measurement": "−[θ1] λ1 218 nm", "setting": "[2]; 90 ° C.", "result": "12.5 X1,000"}, {"measurement": "β-sheet structure in chemical denaturants (CD spectra)", "setting": "[2]; SDS at 90° C., 1-7 M guanidine-HCl or 8 M urea at room temperature for over 16 hours", "result": "not significantly affected"}, {"measurement": "decrease of mean residue ellipticity (−[θ]218 nm), thermal profile", "setting": "[2]; over 25-90° C.", "result": 22, "unit": "%"}, {"measurement": "ratios of ellipticity at 194 nm/217 nm", "setting": "[2]; over the temperature range of 25-90° C.", "result": "approximately 4.0"}, {"measurement": "decrease of ellipticity (−[θ]218 nm), pH profile", "setting": "[2]; pH 1.5 to 3, 7 and 11", "result": "less than 10%"}, {"measurement": "neurite outgrowth on biopolymers", "setting": "[3]", "result": "not on EAK16-based biopolymers"}, {"measurement": "effect on appearance or rate of growth of the cells", "setting": "[4]", "result": "did not affect the appearance or rate of growth of the cells"}, {"measurement": "solubility", "setting": "physchem; maximal solubility in water", "result": "3000 µM and ~5000 µg/mL"}, {"measurement": "solubility", "setting": "physchem; solubility in 23% actonitrile", "result": "≤ 6000 µM and ~10000 µg/mL"}]}]}
